Molecules are shown by their SMILES. Numbered stars: 1 amine (or outer) side, 2 acyl side, 3 side chain; on linkers, the order of the positions; unused ones are H or OH. Bridge positions count the residues as written; N and C are the ends. Square brackets hold non-standard residues; d marks the D form. Peptide text beside a SMILES is read from it. * marks the point of attachment. ξ: configuration not given here. Phe(4-COOH) = N[C@@H](Cc1ccc(C(=O)O)cc1)C(=O)O; Bip = N[C@@H](Cc1ccc(-c2ccccc2)cc1)C(=O)O; Phe(3-Me) = Cc1cccc(C[C@H](N)C(=O)O)c1; ξBip = NC(Cc1ccc(-c2ccccc2)cc1)C(=O)O; NH(CH2)12COOH = O=C(O)CCCCCCCCCCCCN*; Val(3-OH) = CC(C)(O)[C@H](N)C(=O)O; X15 = C[C@H](N)C(N[*:1])C(=O)[*:2]; X6 = O=C(Cc1ccc(CN[*:1])cc1)[*:2]; 4Pal = N[C@@H](Cc1ccncc1)C(=O)O; Cha = N[C@@H](CC1CCCCC1)C(=O)O; Cit = NC(=O)NCCC[C@H](N)C(=O)O; Thr(3ξ) = CC(O)[C@H](N)C(=O)O; dDab = NCC[C@@H](N)C(=O)O; hSer = N[C@@H](CCO)C(=O)O; Carboxymethyl = O=C(O)C*; Orn = NCCC[C@H](N)C(=O)O; Aun = NCCCCCCCCCCC(=O)O; Dab = NCC[C@H](N)C(=O)O; Dap = NC[C@H](N)C(=O)O; ξD = NC(CC(=O)O)C(=O)O; AEEA = NCCOCCOCC(=O)O

T1 sequence (Q15116 25-288): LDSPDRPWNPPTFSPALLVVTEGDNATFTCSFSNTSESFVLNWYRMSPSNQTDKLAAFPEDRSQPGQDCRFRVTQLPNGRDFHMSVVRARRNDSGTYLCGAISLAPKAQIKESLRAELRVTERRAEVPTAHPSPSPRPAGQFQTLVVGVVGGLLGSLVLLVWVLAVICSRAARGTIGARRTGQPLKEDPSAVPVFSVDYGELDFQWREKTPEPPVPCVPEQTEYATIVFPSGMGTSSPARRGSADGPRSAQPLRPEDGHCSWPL

The test concerns the target T1, PD-1/PD-L1 interaction (PE-labeled human PD-L1-Ig binding to Jurkat cell line over-expressing human PD-1) (Homo sapiens, UniProt Q15116).
T1 construct: expressed in transfected cells; host or cells: Jurkat
The experiment in a line: Jurkat-PD-1 Cell Binding High-Content Screening Assay (CBA). In kind it is cell-based. The note with it: Jurkat cell line over-expressing human PD-1; PE-labeled PD-L1-Ig 20 nM final; read-out: Jurkat hPD1-PDL1 IC50. An outline of the steps:
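Binding of fluorescent PD-L1-Ig (phycoerythrin on Ig tag, 20 nM final, 1 h) measured by high-content imaging of fixed, Hoechst-counterstained Jurkat-hPD-1 cells. Compound added 2 h at 37° C beforehand, in DMEM with 10% fetal calf serum.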
Consider `Cc1cccc(C[C@@H]2NC(=O)[C@H](CC(=O)O)NC(=O)[C@H](Cc3ccc(OCC(=O)O)cc3)NC(=O)[C@H](CCCNC(=N)N)NC(=O)CSC[C@@H](C(=O)N[C@@H](CCN)C(=O)NCCCCCCCCCCC(=O)O)NC(=O)[C@H](CCC(N)=O)NC(=O)[C@H](C(C)C)NC(=O)[C@H](CC3CCCCC3)NC(=O)[C@H](CCN)NC(=O)[C@@H](CC(C)C)NC(=O)[C@H](CCCN)NC(=O)[C@H](Cc3ccc(OCC(=O)O)cc3)NC(=O)[C@H](Cc3ccc(-c4ccccc4)cc3)NC(=O)[C@H](C(C)(C)O)NC2=O)c1` [Compound 2113] ({CH2CO}-RY(Carboxymethyl)D[Phe(3-Me)][Val(3-OH)][Bip]Y(Carboxymethyl)[Orn][dL][Dab][Cha]VQC[Dab][Aun]-OH; thioether N-14), for which the IC50 – broadly, the point on the concentration scale where inhibition reaches its midpoint – was found to be 8.7 nM.

Regarding `Cc1cccc(C[C@@H]2NC(=O)[C@H](CC(=O)O)NC(=O)[C@H](Cc3ccc(OCC(=O)O)cc3)NC(=O)[C@H](CN)NC(=O)CSC[C@@H](C(=O)NCc3ccc(CC(=O)N[C@@H](CCCCN)C(=O)NCCCCCCCCCCC(=O)O)cc3)NC(=O)[C@H](CN)NC(=O)[C@H](C(C)C)NC(=O)[C@H](CC3CCCCC3)NC(=O)[C@H](CCN)NC(=O)[C@@H](CC(C)C)NC(=O)[C@H](CCCN)NC(=O)[C@H](C(C)C)NC(=O)[C@H](Cc3ccc(-c4ccccc4)cc3)NC(=O)[C@H](C(C)C)NC2=O)c1` [Compound 2011] ({CH2CO}-[Dap]Y(Carboxymethyl)D[Phe(3-Me)]V[Bip]V[Orn][dL][Dab][Cha]V[Dap]C[X6]K[Aun]-OH; thioether N-14), the IC50 came out at 24.8 nM.

`Cc1cccc(C[C@@H]2NC(=O)[C@H](CC(=O)O)NC(=O)[C@H](Cc3ccc(OCC(=O)O)cc3)NC(=O)[C@H](Cc3cnc[nH]3)NC(=O)CSC[C@@H](C(=O)N[C@@H](CCN)C(=O)NCCCCCCCCCCC(=O)O)NC(=O)[C@H](CO)NC(=O)[C@H](C(C)(C)O)NC(=O)[C@H](CC3CCCCC3)NC(=O)[C@H](CCN)NC(=O)[C@@H](CC(C)C)NC(=O)[C@H](CCCN)NC(=O)[C@H](Cc3ccc(OCC(=O)O)cc3)NC(=O)[C@H](Cc3ccc(-c4ccccc4)cc3)NC(=O)[C@H](Cc3ccc(OCC(=O)O)cc3)NC2=O)c1` [Compound 2219] ({CH2CO}-HY(Carboxymethyl)D[Phe(3-Me)]Y(Carboxymethyl)[Bip]Y(Carboxymethyl)[Orn][dL][Dab][Cha][Val(3-OH)]SC[Dab][Aun]-OH; thioether N-14): the IC50 turned out to be 4.7 nM.

`Cc1cccc(C[C@@H]2NC(=O)[C@H](CC(=O)O)NC(=O)[C@H](Cc3ccc(OCC(=O)O)cc3)NC(=O)[C@H](C(C)O)NC(=O)CSC[C@@H](C(=O)N[C@@H](CCN)C(=O)NCCCCCCCCCCC(=O)O)NC(=O)[C@H](C(C)O)NC(=O)[C@H](C(C)C)NC(=O)[C@H](CC3CCCCC3)NC(=O)[C@H](CCN)NC(=O)[C@@H](CC(C)C)NC(=O)[C@H](CCCNC(=N)N)NC(=O)[C@H](CCCNC(N)=O)NC(=O)[C@H](Cc3ccc(-c4ccccc4)cc3)NC(=O)[C@H](C(C)C)NC2=O)c1` (stereo partly drawn) [Compound 3554] ({CH2CO}-[Thr(3ξ)]Y(Carboxymethyl)D[Phe(3-Me)]V[Bip][Cit]R[dL][Dab][Cha]V[Thr(3ξ)]C[Dab][Aun]-OH; thioether N-14): the IC50 stood at 18.4 nM.

With `Cc1cccc(C[C@@H]2NC(=O)[C@H](CC(=O)O)NC(=O)[C@H](Cc3ccc(OCC(=O)O)cc3)NC(=O)[C@H](CN)NC(=O)CSC[C@@H](C(=O)N[C@@H](C)C(=O)N[C@@H](CCCN)C(=O)NCC(=O)NCCCCCCCCCCC(=O)O)NC(=O)[C@H]([C@@H](C)O)NC(=O)[C@H](C(C)C)NC(=O)[C@H](CC3CCCCC3)NC(=O)[C@H](CCN)NC(=O)[C@@H](CC(C)C)NC(=O)[C@H](CCCN)NC(=O)[C@H](CCCNC(=N)N)NC(=O)[C@H](Cc3ccc(-c4ccccc4)cc3)NC(=O)[C@H](C(C)C)NC2=O)c1` [Compound 2007] ({CH2CO}-[Dap]Y(Carboxymethyl)D[Phe(3-Me)]V[Bip]R[Orn][dL][Dab][Cha]VTCA[Orn]G[Aun]-OH; thioether N-14), the IC50 was determined as 13.7 nM.

With `Cc1cccc(C[C@@H]2NC(=O)[C@H](CC(=O)O)NC(=O)[C@H](Cc3ccc(OCC(=O)O)cc3)NC(=O)C([C@H](C)N)NC(=O)CSC[C@@H](C(=O)N[C@@H](CCN)C(=O)NCCCCCCCCCCCCC(=O)O)NC(=O)[C@H](CO)NC(=O)[C@H](C(C)(C)O)NC(=O)[C@H](CC3CCCCC3)NC(=O)[C@H](CCN)NC(=O)[C@@H](CC(C)C)NC(=O)[C@H](CCCN)NC(=O)[C@H](Cc3ccc(OCC(=O)O)cc3)NC(=O)[C@H](Cc3ccc(-c4ccccc4)cc3)NC(=O)[C@H](Cc3ccc(OCC(=O)O)cc3)NC2=O)c1` (stereo partly drawn) [Compound 2257] ({CH2CO}-[X15]Y(Carboxymethyl)D[Phe(3-Me)]Y(Carboxymethyl)[Bip]Y(Carboxymethyl)[Orn][dL][Dab][Cha][Val(3-OH)]SC[Dab]-{NH(CH2)12COOH}; thioether N-14), the IC50 is 11.1 nM.

With `Cc1cccc(C[C@@H]2NC(=O)[C@H](CC(=O)O)NC(=O)[C@H](Cc3ccc(OCC(=O)O)cc3)NC(=O)[C@H](CN)NC(=O)CSC[C@@H](C(=O)N[C@@H](CCCCN)C(=O)NCCOCCOCC(=O)NCCCCCCCCCCC(=O)O)NC(=O)[C@H](CCCNC(=N)N)NC(=O)[C@H](C(C)C)NC(=O)[C@H](CC3CCCCC3)NC(=O)[C@H](CCN)NC(=O)[C@@H](CC(C)C)NC(=O)[C@H](CCCN)NC(=O)[C@H](C(C)C)NC(=O)[C@H](Cc3ccc(-c4ccccc4)cc3)NC(=O)[C@H](C(C)C)NC2=O)c1` [Compound 2528] ({CH2CO}-[Dap]Y(Carboxymethyl)D[Phe(3-Me)]V[Bip]V[Orn][dL][Dab][Cha]VRCK[AEEA][Aun]-OH; thioether N-14), the IC50 turned out to be 7.8 nM.

Consider `Cc1cccc(C[C@@H]2NC(=O)C(CC(=O)O)NC(=O)[C@H](Cc3ccc(OCC(=O)O)cc3)NC(=O)[C@H](CN)NC(=O)CSC[C@@H](C(=O)N[C@@H](CCCNC(=N)N)C(=O)NCCCCCCCCCCC(=O)O)NC(=O)[C@H]([C@@H](C)O)NC(=O)[C@H](C(C)C)NC(=O)[C@H](CC3CCCCC3)NC(=O)[C@H](CCN)NC(=O)[C@@H](CC(C)C)NC(=O)[C@H](CCCN)NC(=O)[C@H](CCCNC(N)=O)NC(=O)C(Cc3ccc(-c4ccccc4)cc3)NC(=O)[C@H](C(C)C)NC2=O)c1` (stereo partly drawn) [Compound 1174] ({CH2CO}-[Dap]Y(Carboxymethyl)[ξD][Phe(3-Me)]V[ξBip][Cit][Orn][dL][Dab][Cha]VTCR[Aun]-OH; thioether N-14), for which the IC50 is 16.6 nM.

Turning to `Cc1cccc(C[C@@H]2NC(=O)[C@H](CC(=O)O)NC(=O)[C@H](Cc3ccc(OCC(=O)O)cc3)NC(=O)[C@@H](CCN)NC(=O)CSC[C@@H](C(=O)N[C@@H](CCN)C(=O)NCCCCCCCCCCC(=O)O)NC(=O)[C@H](CO)NC(=O)[C@H](C(C)(C)O)NC(=O)[C@H](CC3CCCCC3)NC(=O)[C@H](CCN)NC(=O)[C@@H](CC(C)C)NC(=O)[C@H](CCCN)NC(=O)[C@H](Cc3ccc(OCC(=O)O)cc3)NC(=O)[C@H](Cc3ccc(-c4ccccc4)cc3)NC(=O)[C@H](Cc3ccc(OCC(=O)O)cc3)NC2=O)c1` [Compound 2236] ({CH2CO}-[dDab]Y(Carboxymethyl)D[Phe(3-Me)]Y(Carboxymethyl)[Bip]Y(Carboxymethyl)[Orn][dL][Dab][Cha][Val(3-OH)]SC[Dab][Aun]-OH; thioether N-14), the IC50 was 185 nM.

On to `Cc1cccc(C[C@@H]2NC(=O)[C@H](CC(=O)O)NC(=O)[C@H](Cc3ccc(OCC(=O)O)cc3)NC(=O)[C@H](CCCNC(=N)N)NC(=O)CSC[C@@H](C(=O)N[C@@H](CCN)C(=O)NCCCCCCCCCCC(=O)O)NC(=O)[C@H](CCO)NC(=O)[C@H](C(C)C)NC(=O)[C@H](CC3CCCCC3)NC(=O)[C@H](CCN)NC(=O)[C@@H](CC(C)C)NC(=O)[C@H](CCCN)NC(=O)[C@H](Cc3ccc(O)cc3)NC(=O)[C@H](Cc3ccc(-c4ccccc4)cc3)NC(=O)[C@H](Cc3ccc(OCC(=O)O)cc3)NC2=O)c1` [Compound 2095] ({CH2CO}-RY(Carboxymethyl)D[Phe(3-Me)]Y(Carboxymethyl)[Bip]Y[Orn][dL][Dab][Cha]V[hSer]C[Dab][Aun]-OH; thioether N-14), for which the concentration for half-maximal inhibition (IC50) amounted to 9.5 nM.

With `CC(C)C[C@H]1NC(=O)[C@H](CCCN)NC(=O)[C@H](C(C)C)NC(=O)[C@H](Cc2ccc(-c3ccccc3)cc2)NC(=O)[C@H](C(C)C)NC(=O)[C@H](Cc2c[nH]c3ccccc23)NC(=O)[C@H](CC(=O)O)NC(=O)[C@H](Cc2ccc(OCC(=O)O)cc2)NC(=O)[C@H](CCCNC(=N)N)NC(=O)CSC[C@@H](C(=O)NCCOCCOCC(=O)NCCCCCCCCCCC(=O)O)NC(=O)[C@H](CCCN)NC(=O)[C@H](C(C)C)NC(=O)[C@H](CC2CCCCC2)NC(=O)[C@H](CCN)NC1=O` [Compound 3347] ({CH2CO}-RY(Carboxymethyl)DWV[Bip]V[Orn][dL][Dab][Cha]V[Orn]C[AEEA][Aun]-OH; thioether N-14), the IC50 stood at 3.7 nM.

Consider `Cc1cccc(C[C@@H]2NC(=O)[C@H](CC(=O)O)NC(=O)[C@H](Cc3ccc(OCC(=O)O)cc3)NC(=O)[C@H](Cc3ccncc3)NC(=O)CSC[C@@H](C(=O)N[C@H](CCN)C(=O)NCCOCCOCC(=O)NCCCCCCCCCCC(=O)O)NC(=O)[C@H](CCC(=O)O)NC(=O)[C@H](C(C)(C)O)NC(=O)[C@H](CC3CCCCC3)NC(=O)[C@H](CCN)NC(=O)[C@@H](CC(C)C)NC(=O)[C@H](Cc3cnc[nH]3)NC(=O)[C@H](Cc3ccc(C(=O)O)cc3)NC(=O)[C@H](Cc3ccc(-c4ccccc4)cc3)NC(=O)[C@H](Cc3ccc(C(=O)O)cc3)NC2=O)c1` [Compound 3740] ({CH2CO}-[4Pal]Y(Carboxymethyl)D[Phe(3-Me)][Phe(4-COOH)][Bip][Phe(4-COOH)]H[dL][Dab][Cha][Val(3-OH)]EC[dDab][AEEA][Aun]-OH; thioether N-14), for which the IC50 was determined as 16.1 nM.

The record behind these values is US20260022142A1, “MACROCYCLIC IMMUNOMODULATORS” (Bristol-Myers Squibb Company, priority 2022, published 2026).
